# Data reported in the NIST ThermoML archive (doi:10.1021/je100529s).
# ± gives the expanded uncertainty stated by the source.
# Test: activity coefficient (dimensionless); of the first substance listed, at infinite dilution; xn = mol fraction of the nth substance listed
# Settings: Liquid, Gas Stripping Method, x1 = 0
SMILES,activity coefficient (289.98 K),activity coefficient (299.98 K),activity coefficient (309.99 K),activity coefficient (319.99 K),activity coefficient (329.99 K),activity coefficient (299.99 K),activity coefficient (340.02 K),activity coefficient (309.98 K),activity coefficient (319.98 K),activity coefficient (340.01 K),activity coefficient (289.97 K)
C=CCC [1-butene] + Cc1cccc(O)c1,4.86 ± 0.29,4.75 ± 0.29,4.62 ± 0.28,4.48 ± 0.27,4.36 ± 0.26,,,,,,
"CC(F)F [1,1-difluoroethane] + Cc1cccc(O)c1",4.79 ± 0.29,4.59 ± 0.28,4.37 ± 0.26,4.16 ± 0.25,3.98 ± 0.24,,,,,,
C=CC [propene] + Cc1ccccc1O,,,3.71 ± 0.22,3.6 ± 0.22,3.48 ± 0.21,3.81 ± 0.23,,,,,
C/C=C\C [(Z)-2-butene] + Cc1ccccc1O,,,3.69 ± 0.22,3.57 ± 0.21,3.44 ± 0.21,3.79 ± 0.23,,,,,
CCCC [butane] + Cc1cccc(O)c1,7.22 ± 0.43,7.06 ± 0.42,6.88 ± 0.41,6.6 ± 0.4,6.33 ± 0.38,,,,,,
C=CCC [1-butene] + Cc1ccc(O)cc1,,,4.66 ± 0.28,4.55 ± 0.27,4.4 ± 0.26,,4.26 ± 0.26,,,,
C/C=C/C [(E)-2-butene] + Cc1ccc(O)cc1,,,4.48 ± 0.27,4.35 ± 0.26,4.25 ± 0.26,,4.14 ± 0.25,,,,
C=C(C)C [2-methylpropene] + Cc1cccc(O)c1,4.66 ± 0.28,4.56 ± 0.27,4.42 ± 0.27,4.3 ± 0.26,4.16 ± 0.25,,,,,,
CCC [propane] + Cc1ccc(O)cc1,,,6.29 ± 0.38,6.12 ± 0.37,5.93 ± 0.36,,5.74 ± 0.34,,,,
"CC(F)F [1,1-difluoroethane] + Cc1ccccc1O",,,3.84 ± 0.23,3.67 ± 0.22,3.49 ± 0.21,4.02 ± 0.24,,,,,
COC [dimethyl ether] + Cc1ccc(O)cc1,,,,,0.21 ± 0.01,,,0.16 ± 0.01,0.19 ± 0.01,0.24 ± 0.02,
"C=CC=C [1,3-butadiene] + Cc1ccc(O)cc1",,,3.26 ± 0.2,3.16 ± 0.19,3.07 ± 0.18,,2.99 ± 0.18,,,,
COC [dimethyl ether] + Cc1ccccc1O,,,,,0.18 ± 0.01,0.1 ± 0.01,,0.12 ± 0.01,0.14 ± 0.01,,
CCC [propane] + Cc1ccccc1O,,,6.04 ± 0.36,5.83 ± 0.35,5.58 ± 0.33,6.34 ± 0.38,,,,,
CCC [propane] + Cc1cccc(O)c1,6.31 ± 0.38,6.36 ± 0.38,6.24 ± 0.37,6.06 ± 0.36,5.88 ± 0.35,,,,,,
C/C=C/C [(E)-2-butene] + Cc1ccccc1O,,,4.13 ± 0.25,3.98 ± 0.24,3.82 ± 0.23,4.25 ± 0.26,,,,,
C=C(C)C [2-methylpropene] + Cc1ccc(O)cc1,,,4.44 ± 0.27,4.34 ± 0.26,4.2 ± 0.25,,4.07 ± 0.24,,,,
C=CC [propene] + Cc1cccc(O)c1,4.1 ± 0.25,4.13 ± 0.25,4.05 ± 0.24,3.97 ± 0.24,3.88 ± 0.23,,,,,,

SMILES,activity coefficient (289.98 K),activity coefficient (299.98 K),activity coefficient (309.99 K),activity coefficient (319.99 K),activity coefficient (329.99 K),activity coefficient (299.99 K),activity coefficient (340.02 K),activity coefficient (309.98 K),activity coefficient (319.98 K),activity coefficient (340.01 K),activity coefficient (289.97 K)
CCCC [butane] + Cc1ccccc1O,,,6.61 ± 0.4,6.26 ± 0.38,5.92 ± 0.36,6.92 ± 0.42,,,,,
C/C=C\C [(Z)-2-butene] + Cc1cccc(O)c1,4.29 ± 0.26,4.2 ± 0.25,4.09 ± 0.25,3.99 ± 0.24,3.88 ± 0.23,,,,,,
CC(C)C [2-methylpropane] + Cc1ccc(O)cc1,,,7.93 ± 0.48,7.62 ± 0.46,7.3 ± 0.44,,7.03 ± 0.42,,,,
CC(C)C [2-methylpropane] + Cc1cccc(O)c1,8.35 ± 0.5,8.11 ± 0.49,7.87 ± 0.47,7.54 ± 0.45,7.21 ± 0.43,,,,,,
CC(C)C [2-methylpropane] + Cc1ccccc1O,,,7.57 ± 0.45,7.14 ± 0.43,6.73 ± 0.4,7.92 ± 0.48,,,,,
CCCC [butane] + Cc1ccc(O)cc1,,,6.88 ± 0.41,6.62 ± 0.4,6.32 ± 0.38,,6.09 ± 0.37,,,,
CCCl [chloroethane] + Cc1cccc(O)c1,,2.1 ± 0.13,,1.99 ± 0.12,1.93 ± 0.12,,,2.05 ± 0.12,,,2.13 ± 0.13
C/C=C\C [(Z)-2-butene] + Cc1ccc(O)cc1,,,4.12 ± 0.25,4.03 ± 0.24,3.91 ± 0.23,,3.8 ± 0.23,,,,
C=CC [propene] + Cc1ccc(O)cc1,,,4.07 ± 0.24,4.02 ± 0.24,3.92 ± 0.24,,3.84 ± 0.23,,,,
C=C(C)C [2-methylpropene] + Cc1ccccc1O,,,3.98 ± 0.24,3.84 ± 0.23,3.7 ± 0.22,4.11 ± 0.25,,,,,
"C=CC=C [1,3-butadiene] + Cc1ccccc1O",,,2.81 ± 0.17,2.72 ± 0.16,2.63 ± 0.16,2.87 ± 0.17,,,,,
"C=CC=C [1,3-butadiene] + Cc1cccc(O)c1",3.32 ± 0.2,3.26 ± 0.2,3.22 ± 0.19,3.13 ± 0.19,3.05 ± 0.18,,,,,,
COC [dimethyl ether] + Cc1cccc(O)c1,,0.13 ± 0.01,,0.18 ± 0.01,0.2 ± 0.01,,,0.15 ± 0.01,,,0.11 ± 0.01
CCCl [chloroethane] + Cc1ccc(O)cc1,,,,,1.98 ± 0.12,,,2.09 ± 0.13,2.06 ± 0.12,1.93 ± 0.12,
CCCl [chloroethane] + Cc1ccccc1O,,,,,1.7 ± 0.1,1.83 ± 0.11,,1.77 ± 0.11,1.76 ± 0.11,,
C=CCC [1-butene] + Cc1ccccc1O,,,4.15 ± 0.25,4.03 ± 0.24,3.87 ± 0.23,4.29 ± 0.26,,,,,
"CC(F)F [1,1-difluoroethane] + Cc1ccc(O)cc1",,,4.46 ± 0.27,4.26 ± 0.26,4.07 ± 0.24,,3.88 ± 0.23,,,,
C/C=C/C [(E)-2-butene] + Cc1cccc(O)c1,4.68 ± 0.28,4.57 ± 0.27,4.49 ± 0.27,4.35 ± 0.26,4.23 ± 0.25,,,,,,
